Among the data in patent US8562949B2, “Radiolabeled dihydrotetrabenazine derivatives and their use as imaging agents” (The Trustees of the University of Pennsylvania, priority 2006, dated 2013) are Kd values, retold here.

The target in this test is VMAT2 (Mus musculus, UniProt Q8BRU6). Description: Saturation binding of 18F ligands in mouse striatal homogenates. Also noted: The basal forebrain regions of rat and mouse brains were then dissected; from tissue; host or cells: mouse striatal homogenate; mouse brain coronal sections. The following applies: estimated based on S.A.=2000 Ci/mmole. The method, then: The basal forebrain regions of rat and mouse brains were then dissected. The tissue homogenates were prepared in 50 mM Hepes, pH 7.5 and 0.3 M sucrose. The specific binding of ^3H or ^18F ligands were determined following the procedures described (Scherman D, Raisman R, Ploska A, Agid Y., [^3H]Dihydrotetrabenazine, a new in vitro monoaminergic probe for human brain, J. Neurochem., 1988:50:1131-36). Total volume of reaction for the assay was 0.2 ml. […] In saturation experiments, increasing concentrations of labeled ligand […] in 50 μl buffer were incubated with 100 μl of homogenates (100-250 μg). Incubation was carried out routinely at room temperature for 90 min. The samples were then filtered through glass fiber filters No. 25 (Schleicher and Schuell, Keene, N.H.) and the bound radioactivity was determined for ^18F in a gamma counter (Packard 5000) with 70% efficiency. Filters containing bound ^3H ligand were dissolved in 7 ml Ecolite(+) overnight and the radioactivity was counted next day in the scintillation counter (Beckman) with 65% counting efficiency. […] Nonspecific binding was determined in the presence of 10 μM tetrabenazine. Both saturation and competition experiments were analyzed using the nonlinear least-square curve fitting program LIGAND. […]
Chain of VMAT2 (Q8BRU6 whole entry): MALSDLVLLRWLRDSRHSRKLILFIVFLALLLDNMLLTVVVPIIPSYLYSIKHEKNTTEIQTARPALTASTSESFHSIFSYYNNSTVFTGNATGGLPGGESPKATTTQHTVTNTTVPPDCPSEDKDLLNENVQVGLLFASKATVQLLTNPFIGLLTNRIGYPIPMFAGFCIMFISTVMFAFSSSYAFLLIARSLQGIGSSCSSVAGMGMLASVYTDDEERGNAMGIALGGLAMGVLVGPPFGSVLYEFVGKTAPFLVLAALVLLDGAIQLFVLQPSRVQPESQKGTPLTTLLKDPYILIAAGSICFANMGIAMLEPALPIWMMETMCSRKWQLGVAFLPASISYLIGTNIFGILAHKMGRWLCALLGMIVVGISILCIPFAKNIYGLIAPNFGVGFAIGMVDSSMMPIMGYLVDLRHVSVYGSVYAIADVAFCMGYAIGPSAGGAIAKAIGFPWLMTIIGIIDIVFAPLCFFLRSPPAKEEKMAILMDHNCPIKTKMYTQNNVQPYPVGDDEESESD

As for `COc1cc2c(cc1OCCC[18F])CCN1CC(CC(C)C)C(O)CC21` (racemic) [[^18F]6b], the Kd (usually the free concentration of one partner at which half of the binding sites on the other are occupied at equilibrium, for simple one-to-one binding) is 480 pM.
